# Legend:
# [1] = Protein binding in baboon plasma; assay type: ADME, Papio; settings: read-out: PPB (converted)
# [2] = Lipophilicity as measured by Log P; assay type: physicochemical; settings: octanol/water
# [3] = Half life of the compound; assay type: ADME
# [4] = target: Neuronal acetylcholine receptor; alpha4/beta2 (Homo sapiens, UniProt P17787+P43681); assay: Displacement of [3H]epibatidine from alpha-4-beta-2 ACHR; assay type: protein-complex assay
# Neuronal acetylcholine receptor; alpha4/beta2, sequence (P17787 whole entry): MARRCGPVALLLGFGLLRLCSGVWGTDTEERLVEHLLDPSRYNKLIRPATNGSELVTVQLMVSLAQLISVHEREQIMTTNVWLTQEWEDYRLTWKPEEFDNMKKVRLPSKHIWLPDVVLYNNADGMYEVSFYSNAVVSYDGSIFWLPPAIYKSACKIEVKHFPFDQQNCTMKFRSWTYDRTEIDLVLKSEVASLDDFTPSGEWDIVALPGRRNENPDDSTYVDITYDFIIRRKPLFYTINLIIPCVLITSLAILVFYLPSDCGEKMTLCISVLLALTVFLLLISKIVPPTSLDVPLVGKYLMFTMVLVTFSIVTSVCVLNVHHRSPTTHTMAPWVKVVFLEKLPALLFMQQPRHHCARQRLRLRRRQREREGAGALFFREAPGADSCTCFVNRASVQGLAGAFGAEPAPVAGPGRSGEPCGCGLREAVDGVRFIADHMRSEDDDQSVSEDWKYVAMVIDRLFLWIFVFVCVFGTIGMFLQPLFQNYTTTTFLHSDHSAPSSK
# Neuronal acetylcholine receptor; alpha4/beta2, sequence (P43681 whole entry): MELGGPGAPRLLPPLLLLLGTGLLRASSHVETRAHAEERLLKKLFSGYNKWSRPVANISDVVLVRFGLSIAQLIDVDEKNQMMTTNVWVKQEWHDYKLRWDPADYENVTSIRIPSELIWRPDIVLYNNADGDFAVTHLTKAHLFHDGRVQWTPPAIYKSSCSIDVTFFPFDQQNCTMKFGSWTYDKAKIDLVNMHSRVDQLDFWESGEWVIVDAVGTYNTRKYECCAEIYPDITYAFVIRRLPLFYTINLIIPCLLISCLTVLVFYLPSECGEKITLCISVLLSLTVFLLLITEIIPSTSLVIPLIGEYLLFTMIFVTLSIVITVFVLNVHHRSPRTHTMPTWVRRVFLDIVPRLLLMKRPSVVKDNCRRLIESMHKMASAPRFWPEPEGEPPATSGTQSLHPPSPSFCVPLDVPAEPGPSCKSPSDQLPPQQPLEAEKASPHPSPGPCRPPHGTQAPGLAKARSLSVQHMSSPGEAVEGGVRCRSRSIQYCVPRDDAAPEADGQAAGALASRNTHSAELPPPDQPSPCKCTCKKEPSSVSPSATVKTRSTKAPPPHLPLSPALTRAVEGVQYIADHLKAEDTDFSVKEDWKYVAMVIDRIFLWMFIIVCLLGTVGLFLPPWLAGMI
smiles,measurement,setting,value
[11CH3]N1C2CCC1C(c1cncc(I)c1)C2 (centres undefined),fraction unbound,[1],0.6
same,logP,[2],1.09
same,half-life,[3],1 h
same,Ki,[4],29 nM

# — ChEMBL document CHEMBL1138129, “A novel nicotinic acetylcholine receptor antagonist radioligand for PET studies” (Bioorg Med Chem Lett, 2006)
